Measurements: publication PMC9686977, “Understanding the Role of Self-Assembly and Interaction with Biological Membranes of Short Cationic Lipopeptides in the Effective Design of New Antibiotics” (Antibiotics, 2022)
≈ marks a conversion by molar mass, not a printed value. Residues, ends and D or L forms follow the SMILES beside them. *: point of attachment. Palmitoyl = CCCCCCCCCCCCCCCC(=O)*; Myristoyl = CCCCCCCCCCCCCC(=O)*; Lauroyl = CCCCCCCCCCCC(=O)*

Key:
[1] = system: Candida albicans ATCC 10231; format: cell-based; conditions: ATCC 10231, 48 h
Description: (§1) The minimum inhibitory concentration (MIC) was determined according to the procedure recommended by the Clinical Laboratory Standards Institute guidelines. Reference strains of bacteria: Staphylococcus aureus ATCC 25923, Staphylococcus epidermidis ATCC 14990, Escherichia coli ATCC 25922, Pseudomonas aeruginosa ATCC 9027, and fungus Candida albicans ATCC 10231 were obtained from Polish Collection of Microorganisms (PCM, Polish Academy of Sciences, Wroclaw, Poland). […] The plates with the compounds were incubated for 18 h at 37 °C for bacteria and 48 h at 25 °C for fungi. The minimum inhibitory concentration was assumed as the lowest concentration of a lipopeptide at which the observable growth was inhibited.

[2] = system: Escherichia coli ATCC 25922; format: cell-based; conditions: ATCC 25922, 18 h
Description: as §1

[3] = system: Pseudomonas aeruginosa ATCC 9027; format: cell-based; conditions: ATCC 9027, 18 h
Description: as §1

[4] = system: Staphylococcus aureus ATCC 25923; format: cell-based; conditions: ATCC 25923, 18 h
Description: as §1

[5] = system: Staphylococcus epidermidis ATCC 14990; format: cell-based; conditions: ATCC 14990, 18 h
Description: as §1

[6] = system: human keratinocytes HaCaT; format: cell-based; conditions: 48 h
Description: The cytotoxicity of the compounds was evaluated on the basis of a tetrazolium salt reduction test (MTT) performed along the lines of human keratinocytes HaCaT. The keratinocytes were planted in 96-well plates in a medium supplemented with serum. After 24 h, the medium was changed to a serum-free DMEM one containing graded concentrations of peptides. The cells were incubated with peptides for 48 h. Thereafter, MTT was added in order to reach a final concentration of 0.5 mg/mL, and the plates were incubated at 37 °C for 4 h. Then, the MTT reading was analysed using a plate reader. The absorbance at 630 nm (background absorbance) was subtracted from that at 570 nm for each well.

[7] = different lipopeptide concentrations

Row | SMILES | MIC C. albicans [1] [µg/mL] | MIC E. coli [2] [µg/mL] | MIC P. aeruginosa [3] [µg/mL] | MIC S. aureus [4] [µg/mL] | MIC S. epidermidis [5] [µg/mL] | IC50 on human keratinocytes (HaCaT) [6] [µg/mL] | aggregate size from self-diffusion coefficients (PFG NMR), compared with C16-KKKK-NH2 [7]
1 | CCCCCCCCCCCC(=O)N[C@@H](CCCCN)C(=O)N[C@@H](CCCNC(=N)N)C(=O)N[C@@H](CCCCN)C(=O)N[C@@H](CCCCN)C(N)=O [Peptide C12-KRKK-NH2] (Lauroyl-KRKK-NH2) | 512 (≈ 692 µM) | 512 (≈ 692 µM) | 512 (≈ 692 µM) | 64 (≈ 86.5 µM) | ≤1 | – | –
2 | CCCCCCCCCCCCCC(=O)N[C@@H](CCCCN)C(=O)N[C@@H](CCCCN)C(=O)N[C@@H](CCCCN)C(=O)N[C@@H](CCCNC(=N)N)C(N)=O [Peptide C14-KKKR-NH2] (Myristoyl-KKKR-NH2) | 128 (≈ 167 µM) | 128 (≈ 167 µM) | 128 (≈ 167 µM) | 32 (≈ 41.7 µM) | ≤1 | 32.5 ± 10.0 (≈ 42.3 µM) | –
3 | CCCCCCCCCCCCCC(=O)N[C@@H](CCCCN)C(=O)N[C@@H](CCCNC(=N)N)C(=O)N[C@@H](CCCCN)C(=O)N[C@@H](CCCCN)C(N)=O [Peptide C14-KRKK-NH2] (Myristoyl-KRKK-NH2) | 128 (≈ 167 µM) | 64 (≈ 83.3 µM) | 64 (≈ 83.3 µM) | 16 (≈ 20.8 µM) | ≤1 | 20.38 ± 4.12 (≈ 26.5 µM) | –
4 | CCCCCCCCCCCCCCCC(=O)N[C@@H](CCCCN)C(=O)NCC(=O)N[C@@H](CCCCN)C(N)=O [Peptide C16-KGK-NH2] (Palmitoyl-Lys-Gly-Lys-NH2) | 8 (≈ 14.1 µM) | 8 (≈ 14.1 µM) | 64 (≈ 113 µM) | 16 (≈ 28.1 µM) | 4 (≈ 7.03 µM) | 7.41 ± 3.05 (≈ 13 µM) | –
5 | CCCCCCCCCCCCCCCC(=O)N[C@@H](CCCCN)C(=O)N[C@@H](CCCCN)C(N)=O [Peptide C16-KK-NH2] | 4 (≈ 7.82 µM) | 8 (≈ 15.6 µM) | 128 (≈ 250 µM) | 8 (≈ 15.6 µM) | 4 (≈ 7.82 µM) | 2.5 ± 0.8 (≈ 4.88 µM) | –
6 | CCCCCCCCCCCCCCCC(=O)N[C@@H](CCCCN)C(=O)N[C@@H](CCCCN)C(=O)N[C@@H](CCCCN)C(=O)N[C@@H](CCCCN)C(N)=O [Peptide C16-KKKK-NH2] (Palmitoyl-KKKK-NH2) | 16 (≈ 20.8 µM) | 16 (≈ 20.8 µM) | 16 (≈ 20.8 µM) | 8 (≈ 10.4 µM) | 8 (≈ 10.4 µM) | 23.52 ± 1.30 (≈ 30.6 µM) | –
7 | CCCCCCCCCCCCCCCC(=O)N[C@@H](CCCNC(=N)N)C(=O)N[C@@H](CCCNC(=N)N)C(=O)N[C@@H](CCCNC(=N)N)C(=O)N[C@@H](CCCNC(=N)N)C(N)=O [Peptide C16-RRRR-NH2] (Palmitoyl-RRRR-NH2) | – | – | – | – | – | – | distinctly larger aggregates

Further lines, with some results ahead:

Row | MIC C. albicans [1] [µg/mL] | MIC E. coli [2] [µg/mL] | MIC P. aeruginosa [3] [µg/mL] | MIC S. aureus [4] [µg/mL] | MIC S. epidermidis [5] [µg/mL] | SMILES | IC50 on human keratinocytes (HaCaT) [6] [µg/mL] | aggregate size from self-diffusion coefficients (PFG NMR), compared with C16-KKKK-NH2 [7]
8 | >512 | 512 (≈ 719 µM) | 256 (≈ 360 µM) | 64 (≈ 89.9 µM) | 16 (≈ 22.5 µM) | CCCCCCCCCCCC(=O)N[C@@H](CCCCN)C(=O)N[C@@H](CCCCN)C(=O)N[C@@H](CCCCN)C(=O)N[C@@H](CCCCN)C(N)=O [Peptide C12-KKKK-NH2] (Lauroyl-KKKK-NH2) | – | –
9 | 128 (≈ 173 µM) | 128 (≈ 173 µM) | 64 (≈ 86.5 µM) | 32 (≈ 43.2 µM) | 2 (≈ 2.7 µM) | CCCCCCCCCCCCCC(=O)N[C@@H](CCCCN)C(=O)N[C@@H](CCCCN)C(=O)N[C@@H](CCCCN)C(=O)N[C@@H](CCCCN)C(N)=O [Peptide C14-KKKK-NH2] (Myristoyl-KKKK-NH2) | 15.63 ± 0.74 (≈ 21.1 µM) | –
10 | 4 (≈ 6.86 µM) | 64 (≈ 110 µM) | 64 (≈ 110 µM) | 128 (≈ 220 µM) | 2 (≈ 3.43 µM) | CCCCCCCCCCCCCCCC(=O)N[C@@H](CCCCN)C(=O)NCCC(=O)N[C@@H](CCCCN)C(N)=O [Peptide C16-KβAK-NH2] | 25.11 ± 6.17 (≈ 43.1 µM) | –
11 | 4 (≈ 7.41 µM) | 128 (≈ 237 µM) | 64 (≈ 119 µM) | 64 (≈ 119 µM) | 4 (≈ 7.41 µM) | CCCCCCCCCCCCCCCCCC(=O)N[C@@H](CCCCN)C(=O)N[C@@H](CCCCN)C(N)=O [Peptide C18-KK-NH2] | 0.69 ± 0.001 (≈ 1.28 µM) | –
